From the NIST ThermoML archive (doi:10.1021/je2012633)
± gives the expanded uncertainty stated by the source.

Experiment: xn = mol fraction of the nth substance listed
Details: 101 kPa, Liquid, Vibrating tube method

CCOS(=O)(=O)[O-].CCn1cc[n+](C)c1 [1-ethyl-3-methylimidazolium ethyl sulfate] + CCO
mass density [kg/m3]
Details	288.15 K	298.15 K	308.15 K	318.15 K
x1 = 0.0494	864.9 ± 1	856.6 ± 1	848.1 ± 1	839.7 ± 1
x1 = 0.1233	943.6 ± 1	935.6 ± 1	927.6 ± 1	919.5 ± 1
x1 = 0.2469	1035.3 ± 1	1027.6 ± 1	1019.9 ± 1	1012.3 ± 1
x1 = 0.3485	1088.4 ± 1.1	1080.9 ± 1.1	1073.4 ± 1	1066 ± 1
x1 = 0.4727	1136.8 ± 1.1	1129.5 ± 1.1	1122.2 ± 1.1	1115 ± 1.1
x1 = 0.5667	1164.9 ± 1.1	1157.7 ± 1.1	1150.6 ± 1.1	1143.5 ± 1.1
x1 = 0.6483	1185.3 ± 1.2	1178.2 ± 1.2	1171.2 ± 1.2	1164.2 ± 1.2
x1 = 0.7421	1205.3 ± 1.3	1198.3 ± 1.3	1191.3 ± 1.3	1184.4 ± 1.3
x1 = 0.827	1220.5 ± 1.4	1213.8 ± 1.4	1206.8 ± 1.4	1200 ± 1.3
x1 = 0.9211	1234.8 ± 1.5	1227.9 ± 1.5	1221.1 ± 1.5	1214.3 ± 1.5
x1 = 1	1245.3 ± 1.6	1238.3 ± 1.6	1231.6 ± 1.6	1224.9 ± 1.6

CCOS(=O)(=O)[O-].CCn1cc[n+](C)c1 [1-ethyl-3-methylimidazolium ethyl sulfate] + O
mass density [kg/m3]
Details	288.15 K	298.15 K	308.15 K	318.15 K
x1 = 0.0319	1064.5 ± 1	1059.9 ± 1	1054.4 ± 1	1048.4 ± 1
x1 = 0.07	1114.1 ± 1	1108 ± 1	1101.8 ± 1	1095.1 ± 1
x1 = 0.1022	1141.9 ± 1	1135.3 ± 1	1128.5 ± 1	1121.5 ± 1
x1 = 0.1961	1186.1 ± 1	1178.9 ± 1	1171.8 ± 1	1164.6 ± 1
x1 = 0.2988	1208.5 ± 1	1201.4 ± 1	1194.3 ± 1	1187.2 ± 1
x1 = 0.395	1220.4 ± 1	1213.4 ± 1	1206.3 ± 1	1199.3 ± 1
x1 = 0.4939	1228.4 ± 1.1	1221.4 ± 1.1	1214.4 ± 1.1	1207.4 ± 1.1
x1 = 0.5829	1233.3 ± 1.1	1226.4 ± 1.1	1219.4 ± 1.1	1212.5 ± 1.1
x1 = 0.6798	1237.1 ± 1.2	1230.2 ± 1.2	1223.4 ± 1.2	1216.6 ± 1.2
x1 = 0.7975	1240.8 ± 1.3	1233.9 ± 1.3	1227.1 ± 1.3	1220.3 ± 1.3
x1 = 0.8726	1242.6 ± 1.4	1235.8 ± 1.4	1229 ± 1.4	1222.3 ± 1.4
x1 = 1	1245.3 ± 1.6	1238.3 ± 1.6	1231.6 ± 1.6	1224.9 ± 1.6

CCCCCCCCOS(=O)(=O)[O-].CCn1cc[n+](C)c1 [1-ethyl-3-methylimidazolium octyl sulfate] + CCO
mass density [kg/m3]
Details	x1 = 0.098	x1 = 0.1901	x1 = 0.2985	x1 = 0.3955	x1 = 0.4964	x1 = 0.5975	x1 = 0.6844	x1 = 0.792	x1 = 0.9047	x1 = 1
288.15 K	906.4 ± 1	964.1 ± 1	1006.3 ± 1	1031.6 ± 1	1050.9 ± 1	1065.6 ± 1	1075.6 ± 1	1085.7 ± 1	1094.4 ± 1	1100.7 ± 1
298.15 K	898.5 ± 1	956.5 ± 1	998.9 ± 1	1024.4 ± 1	1043.9 ± 1	1058.7 ± 1	1068.8 ± 1	1078.9 ± 1	1087.5 ± 1	1093.8 ± 1
308.15 K	890.7 ± 1	949 ± 1	991.8 ± 1	1017.4 ± 1	1037 ± 1	1051.9 ± 1	1062.1 ± 1	1072.3 ± 1	1081 ± 1	1087 ± 1
318.15 K	882.8 ± 1	941.4 ± 1	984.4 ± 1	1010.3 ± 1	1030.1 ± 1	1045.2 ± 1	1055.4 ± 1	1065.8 ± 1	1074.4 ± 1	1080.5 ± 1

CCCCCCCCOS(=O)(=O)[O-].CCn1cc[n+](C)c1 [1-ethyl-3-methylimidazolium octyl sulfate] + O
mass density [kg/m3]
Details	x1 = 0.0053	x1 = 0.1002	x1 = 0.3923	x1 = 0.5963	x1 = 0.7373	x1 = 0.7747	x1 = 0.8545	x1 = 0.9371	x1 = 1
298.15 K	1005.3 ± 1	1060.6 ± 1	1086.3 ± 1	1090.5 ± 1	1092.1 ± 1	1092.4 ± 1	1093 ± 1	1093.5 ± 1	1093.8 ± 1
308.15 K	1001.8 ± 1	1054 ± 1	1079.6 ± 1	1083.8 ± 1	1085.5 ± 1	1085.7 ± 1	1086.4 ± 1	1086.9 ± 1	1087 ± 1
318.15 K	997.3 ± 1	1047.4 ± 1	1072.9 ± 1	1077.2 ± 1	1079.1 ± 1	1079.2 ± 1	1079.9 ± 1	1080.4 ± 1	1080.5 ± 1

CCCCCCOS(=O)(=O)[O-].CC[n+]1ccn(C)c1 [3-ethyl-1-methyl-1H-imidazolium hexyl sulfate] + CCO
mass density [kg/m3]
Details	x1 = 0.0977	x1 = 0.2202	x1 = 0.3246	x1 = 0.4377	x1 = 0.4947	x1 = 0.6214	x1 = 0.7252	x1 = 0.7455	x1 = 0.9063	x1 = 1
288.15 K	911.2 ± 1	990 ± 1	1031.7 ± 1	1063.2 ± 1.1	1075.5 ± 1.1	1097.3 ± 1.1	1110.9 ± 1.2	1113.2 ± 1.2	1128.5 ± 1.3	1136.6 ± 1.4
298.15 K	903.4 ± 1	982.4 ± 1	1024.3 ± 1	1056 ± 1.1	1068.4 ± 1.1	1090.4 ± 1.1	1104.1 ± 1.2	1106.4 ± 1.2	1121.8 ± 1.3	1129.6 ± 1.4
308.15 K	895.3 ± 1	974.9 ± 1	1017.1 ± 1	1048.9 ± 1.1	1061.4 ± 1.1	1083.5 ± 1.1	1097.4 ± 1.2	1099.7 ± 1.2	1115.2 ± 1.3	1123.1 ± 1.4
318.15 K	887.4 ± 1	967.4 ± 1	1009.8 ± 1	1042 ± 1.1	1054.4 ± 1.1	1076.8 ± 1.1	1090.7 ± 1.2	1093 ± 1.2	1108.8 ± 1.3	1116.6 ± 1.4

CCCCCCOS(=O)(=O)[O-].CC[n+]1ccn(C)c1 [3-ethyl-1-methyl-1H-imidazolium hexyl sulfate] + O
mass density [kg/m3]
Details	x1 = 0.0501	x1 = 0.0965	x1 = 0.2075	x1 = 0.3982	x1 = 0.582	x1 = 0.7243	x1 = 0.7976	x1 = 0.9346	x1 = 1
288.15 K	1061.4 ± 1	1086.5 ± 1	1111.4 ± 1	1125.8 ± 1	1131.2 ± 1.1	1133.5 ± 1.2	1134.5 ± 1.2	1135.8 ± 1.3	1136.6 ± 1.4
298.15 K	1056 ± 1	1080.2 ± 1	1104.8 ± 1	1119 ± 1	1124.5 ± 1.1	1126.8 ± 1.1	1127.7 ± 1.2	1129 ± 1.3	1129.6 ± 1.4
308.15 K	1050.2 ± 1	1073.7 ± 1	1097.8 ± 1	1112.2 ± 1	1117.8 ± 1.1	1120.3 ± 1.1	1121.2 ± 1.2	1122.3 ± 1.3	1123.1 ± 1.4
318.15 K	1044.1 ± 1	1066.9 ± 1	1090.8 ± 1	1105.4 ± 1	1111.2 ± 1.1	1113.8 ± 1.1	1114.7 ± 1.2	1115.8 ± 1.3	1116.6 ± 1.4

CCCCOS(=O)(=O)[O-].CC[n+]1ccn(C)c1 [3-ethyl-1-methylimidazolium butyl sulfate] + CCO
mass density [kg/m3]
Details	288.15 K	298.15 K	308.15 K	318.15 K
x1 = 0.0498	864.5 ± 1	856.2 ± 1	847.9 ± 1	839.5 ± 1
x1 = 0.0989	915.1 ± 1	907.1 ± 1	898.9 ± 1	890.9 ± 1
x1 = 0.1938	987 ± 1	979.3 ± 1	971.6 ± 1	963.8 ± 1
x1 = 0.2904	1037.4 ± 1	1030 ± 1	1022.4 ± 1	1014.8 ± 1
x1 = 0.3812	1072.1 ± 1	1064.8 ± 1	1057.6 ± 1	1050.4 ± 1
x1 = 0.4691	1098.2 ± 1	1091 ± 1	1083.9 ± 1	1076.9 ± 1
x1 = 0.4993	1105.9 ± 1	1098.8 ± 1	1091.1 ± 1	1083.7 ± 1
x1 = 0.5699	1122 ± 1	1114.9 ± 1	1107.9 ± 1	1101 ± 1
x1 = 0.6866	1143.7 ± 1	1136.7 ± 1	1129.7 ± 1	1122.8 ± 1
x1 = 0.7858	1158.4 ± 1	1151.6 ± 1	1144.7 ± 1	1138 ± 1
x1 = 0.8794	1169.9 ± 1	1163.1 ± 1	1156.3 ± 1	1149.6 ± 1
x1 = 1	1182.5 ± 1.1	1175.7 ± 1.1	1169 ± 1.1	1162.4 ± 1.1

CCCCOS(=O)(=O)[O-].CC[n+]1ccn(C)c1 [3-ethyl-1-methylimidazolium butyl sulfate] + O
mass density [kg/m3]
Details	288.15 K	298.15 K	308.15 K	318.15 K
x1 = 0.0526	1081 ± 1	1075.8 ± 1	1069.6 ± 1	1063.2 ± 1
x1 = 0.0987	1114.3 ± 1	1107.5 ± 1	1100.5 ± 1	1093.4 ± 1
x1 = 0.2007	1146.1 ± 1	1139.1 ± 1	1131.9 ± 1	1124.7 ± 1
x1 = 0.2973	1159.3 ± 1	1152.3 ± 1	1145.3 ± 1	1138.3 ± 1
x1 = 0.3957	1167.2 ± 1	1160.2 ± 1	1153.2 ± 1	1146.3 ± 1
x1 = 0.4866	1171.7 ± 1	1164.8 ± 1	1158 ± 1	1151.1 ± 1
x1 = 0.5868	1175 ± 1	1168.4 ± 1	1161.5 ± 1	1154.7 ± 1
x1 = 0.6909	1177.9 ± 1	1171.1 ± 1	1164.3 ± 1	1157.6 ± 1
x1 = 0.7872	1179.6 ± 1	1172.9 ± 1	1166.2 ± 1	1159.5 ± 1
x1 = 0.8922	1181.4 ± 1	1174.5 ± 1	1167.9 ± 1	1161.2 ± 1
x1 = 0.9416	1181.8 ± 1.1	1175 ± 1	1168.3 ± 1	1161.7 ± 1
x1 = 1	1182.5 ± 1.1	1175.7 ± 1.1	1169 ± 1.1	1162.4 ± 1.1

CCO [ethanol] + CCOS(=O)(=O)[O-].CCn1cc[n+](C)c1
x2 = 0
Details	mass density [kg/m3]
288.15 K	794.4 ± 1
298.15 K	785.8 ± 1
308.15 K	777.1 ± 1
318.15 K	768.3 ± 1
